# From ChEMBL document CHEMBL1201862, “PubChem BioAssay data set” (2004)
#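 Growth conditions: 96-well plates. Treatment: test compound, 48 hours, 5 concentrations. Analysis: linear interpolation between bracketing concentrations; unreached endpoints set to highest concentration. GI50 marks 50% less growth.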 Calls of active or inactive are those of the source. No stated cut-off is given here; in the data, active = GI50 up to about 1.1 µM and inactive = higher.
# Key:
# Test in all cases: NCI-60 cell line screen, 48 h
# HCT-116 = system: HCT-116
# NCI-H23 = system: NCI-H23
# U-251 = system: U-251
# KM12 = system: KM12
# SNB-19 = system: SNB-19
# NCI-H460 = system: NCI-H460
# MOLT-4 = system: MOLT-4
# SK-MEL-2 = system: SK-MEL-2
# SF-268 = system: SF-268
# HCC 2998 = system: HCC 2998
# NCI-H226 = system: NCI-H226
# ACHN = system: ACHN
# SW-620 = system: SW-620
# OVCAR-3 = system: OVCAR-3
# SR = system: SR
# RPMI-8226 = system: RPMI-8226
# CAKI-1 = system: CAKI-1
# SK-OV-3 = system: SK-OV-3
# NCI/ADR-RES = system: NCI/ADR-RES
# MCF7 = system: MCF7
Structure (SMILES),GI50 (HCT-116),GI50 (NCI-H23),GI50 (U-251),GI50 (KM12),GI50 (SNB-19),GI50 (NCI-H460),GI50 (MOLT-4),GI50 (SK-MEL-2),GI50 (SF-268),GI50 (HCC 2998),GI50 (NCI-H226),GI50 (ACHN),GI50 (SW-620),GI50 (OVCAR-3),GI50 (SR),GI50 (RPMI-8226),GI50 (CAKI-1),GI50 (SK-OV-3),GI50 (NCI/ADR-RES),GI50 (MCF7)
CN(C)CCC1(C2=CCCC2)CC/C(=C\c2ccccc2)C1=O (stereo unspecified),19.5 µM (inactive),21.8 µM (inactive),16.6 µM (inactive),15.5 µM (inactive),14.7 µM (inactive),15.9 µM (inactive),14.3 µM (inactive),16.4 µM (inactive),21.5 µM (inactive),15.8 µM (inactive),16.9 µM (inactive),15.3 µM (inactive),16.9 µM (inactive),15.2 µM (inactive),25.2 µM (inactive),14.6 µM (inactive),12.5 µM (inactive),,,
CC(SC1=CC(=O)c2c(O)ccc(O)c2C1=O)C(=O)O (stereo unspecified),31.2 µM (inactive),> 56.4 µM (inactive),> 42.1 µM (inactive),> 100 µM (inactive),> 100 µM (inactive),> 100 µM (inactive),7.48 µM (inactive),> 100 µM (inactive),48 µM (inactive),> 73.8 µM (inactive),> 58.5 µM (inactive),26.7 µM (inactive),> 40.8 µM (inactive),21.4 µM (inactive),> 52.8 µM (inactive),> 52.8 µM (inactive),27.4 µM (inactive),> 100 µM (inactive),,
O=S(=O)(N/C(=N\O)Nc1ccc(Cl)cc1)c1cc2ccccc2s1,16.6 µM (inactive),16 µM (inactive),15.2 µM (inactive),22.3 µM (inactive),17 µM (inactive),31.8 µM (inactive),16.2 µM (inactive),15.8 µM (inactive),15.2 µM (inactive),,15.4 µM (inactive),16.4 µM (inactive),23.7 µM (inactive),15 µM (inactive),,,15.8 µM (inactive),16.7 µM (inactive),20.2 µM (inactive),
CC1NC(=O)C2=C1C(N)=NC(=O)C2 (stereo unspecified),> 100 µM (inactive),> 100 µM (inactive),> 100 µM (inactive),> 100 µM (inactive),> 100 µM (inactive),> 100 µM (inactive),> 100 µM (inactive),> 100 µM (inactive),> 100 µM (inactive),> 100 µM (inactive),> 100 µM (inactive),> 100 µM (inactive),> 100 µM (inactive),> 100 µM (inactive),> 100 µM (inactive),> 100 µM (inactive),> 100 µM (inactive),> 100 µM (inactive),,
CCOC(=O)/C=C1\Oc2ccccc2C1(C)O (stereo unspecified),> 100 µM (inactive),> 100 µM (inactive),> 100 µM (inactive),> 100 µM (inactive),> 100 µM (inactive),> 100 µM (inactive),> 100 µM (inactive),> 100 µM (inactive),> 100 µM (inactive),> 100 µM (inactive),> 100 µM (inactive),> 100 µM (inactive),> 100 µM (inactive),> 100 µM (inactive),> 100 µM (inactive),> 100 µM (inactive),> 100 µM (inactive),> 100 µM (inactive),,
COC(=O)C#CC(N)=O,98.2 µM (inactive),> 100 µM (inactive),> 100 µM (inactive),> 100 µM (inactive),> 100 µM (inactive),> 100 µM (inactive),22.3 µM (inactive),> 91.2 µM (inactive),> 100 µM (inactive),> 100 µM (inactive),> 100 µM (inactive),> 100 µM (inactive),23.8 µM (inactive),> 100 µM (inactive),24.2 µM (inactive),,28.1 µM (inactive),> 100 µM (inactive),,
Cc1nc2ccc(C(F)(F)F)cc2nc1Nc1ccc(Cl)c(Cl)c1,10.5 µM (inactive),12.6 µM (inactive),6.46 µM (inactive),,14.1 µM (inactive),2.65 µM (inactive),7 µM (inactive),14.3 µM (inactive),13.8 µM (inactive),3.72 µM (inactive),16.1 µM (inactive),11.3 µM (inactive),12.7 µM (inactive),12.8 µM (inactive),8.73 µM (inactive),8.17 µM (inactive),,18.9 µM (inactive),,
CC1CCC(=O)C(C(O)CC2CC(=O)N(c3ccccc3)C(=O)C2)C1 (stereo unspecified),> 100 µM (inactive),> 100 µM (inactive),> 100 µM (inactive),> 100 µM (inactive),> 100 µM (inactive),> 100 µM (inactive),> 100 µM (inactive),,> 100 µM (inactive),> 100 µM (inactive),> 100 µM (inactive),> 100 µM (inactive),> 100 µM (inactive),> 100 µM (inactive),> 100 µM (inactive),> 100 µM (inactive),> 100 µM (inactive),> 100 µM (inactive),,
O=C1OC(c2ccccc2Br)=N/C1=C/c1ccccc1,37.2 µM (inactive),32.8 µM (inactive),26.6 µM (inactive),19 µM (inactive),24.9 µM (inactive),42.5 µM (inactive),48.8 µM (inactive),18.8 µM (inactive),31.6 µM (inactive),19.1 µM (inactive),18.8 µM (inactive),27.5 µM (inactive),42.9 µM (inactive),14.1 µM (inactive),27 µM (inactive),33.1 µM (inactive),35.2 µM (inactive),63.7 µM (inactive),,57.1 µM (inactive)
CCC(C)C(=O)c1c(O)c(C/C=C(\C)CCC=C(C)C)c(O)c2c(C(O)CC)cc(=O)oc12 (stereo unspecified),0.867 µM (active),1.56 µM (inactive),1.51 µM (inactive),2.51 µM (inactive),4.23 µM (inactive),2.3 µM (inactive),1.59 µM (inactive),1.62 µM (inactive),1.9 µM (inactive),0.358 µM (active),2.53 µM (inactive),2.2 µM (inactive),1.98 µM (inactive),2.69 µM (inactive),1.31 µM (inactive),1.09 µM (active),2.23 µM (inactive),4.41 µM (inactive),,
NCCCCNCCCNC(=O)c1nc(-c2nc(CCN)sc2Cl)sc1Cl,9.48 µM (inactive),37.9 µM (inactive),> 100 µM (inactive),27.5 µM (inactive),> 100 µM (inactive),27.7 µM (inactive),> 100 µM (inactive),,6.98 µM (inactive),> 100 µM (inactive),> 100 µM (inactive),> 100 µM (inactive),16.7 µM (inactive),> 100 µM (inactive),6.87 µM (inactive),31.3 µM (inactive),> 100 µM (inactive),> 100 µM (inactive),,
CC1=NN(c2ccccc2)C(=O)C12[C@H](c1ccccc1)C2(C#N)C#N (stereo partly specified),3.21 µM (inactive),2.85 µM (inactive),15.4 µM (inactive),9.64 µM (inactive),15.8 µM (inactive),17.5 µM (inactive),0.679 µM (active),6.43 µM (inactive),7.26 µM (inactive),18.5 µM (inactive),12.8 µM (inactive),8.36 µM (inactive),1.87 µM (inactive),7.03 µM (inactive),1.91 µM (inactive),1.91 µM (inactive),6.41 µM (inactive),18.6 µM (inactive),,
C/C(=N\N=C(/S)N1CCCCCC1)c1cccc[n+]1[O-],0.433 µM (active),5.82 µM (inactive),6.28 µM (inactive),4.52 µM (inactive),7.41 µM (inactive),1.8 µM (inactive),0.129 µM (active),2.37 µM (inactive),9.29 µM (inactive),1.71 µM (inactive),7.69 µM (inactive),4.58 µM (inactive),1.64 µM (inactive),0.61 µM (active),4.01 µM (inactive),0.116 µM (active),6.37 µM (inactive),20.8 µM (inactive),,2.64 µM (inactive)
CCCCCC[N+](C)(C)Cc1ccc(C[N+](C)(C)CCCCCC)cc1,3.71 µM (inactive),1.82 µM (inactive),2.57 µM (inactive),2.25 µM (inactive),5.2 µM (inactive),2.64 µM (inactive),1.54 µM (inactive),2.14 µM (inactive),2.79 µM (inactive),3.84 µM (inactive),3.51 µM (inactive),3.56 µM (inactive),4.84 µM (inactive),3.78 µM (inactive),2.19 µM (inactive),4.23 µM (inactive),3.19 µM (inactive),9.66 µM (inactive),,
CC1C2CC(C(C3C(=O)C4CC3C(C)(C)C4C)C2=O)C1(C)C (stereo unspecified),> 100 µM (inactive),> 100 µM (inactive),> 100 µM (inactive),> 100 µM (inactive),> 100 µM (inactive),> 100 µM (inactive),> 100 µM (inactive),,> 100 µM (inactive),> 100 µM (inactive),> 100 µM (inactive),> 100 µM (inactive),> 100 µM (inactive),> 100 µM (inactive),> 100 µM (inactive),,> 100 µM (inactive),> 100 µM (inactive),,> 100 µM (inactive)
COc1cc(/C=C2/C(=O)NC(Cc3cc(OC)c(OC)c(C)c3OC)C(=O)N2Cc2ccccc2)c(OC)c(C)c1OC (stereo unspecified),> 100 µM (inactive),79.8 µM (inactive),48.2 µM (inactive),55.5 µM (inactive),81.3 µM (inactive),38.1 µM (inactive),23 µM (inactive),30.2 µM (inactive),69.5 µM (inactive),55.1 µM (inactive),58.6 µM (inactive),61.7 µM (inactive),80.2 µM (inactive),47.2 µM (inactive),14.3 µM (inactive),24.3 µM (inactive),39.6 µM (inactive),49.2 µM (inactive),,
